Source: patent US20240216372A1, “THERAPEUTICS FOR KELOIDS AND OTHER FIBROTIC DISORDERS” (Florida State University Research Foundation, Inc., priority 2022, published 2024)

Key:
[1] = test system: keloid dermal fibroblasts; test: keloid fibroblast proliferation; type: cell-based, human; details: for sensitivity of keloid fibroblasts compared to normal HDFs: keloid fibroblasts versus normal HDFs; for effect on keloid fibroblast proliferation / sensitivity of keloid dermal fibroblasts to the drug (effective concentration range): patient-derived keloid dermal fibroblasts
[2] = test system: Insulin-like Growth Factor 2 (IGF2) signaling; details: general statement, no test described; cited from earlier work
[3] = test system: normal primary human dermal fibroblasts (HDFs); test: normal HDF proliferation; type: cell-based

| Compound | sensitivity of keloid fibroblasts compared to normal HDFs [1] | effect on keloid fibroblast proliferation [1] | sensitivity of keloid dermal fibroblasts to the drug (effective concentration range) [1] | effective range as inhibitor of IGF2 signaling [2] | sensitivity / proliferation of normal HDFs [3] |
| --- | --- | --- | --- | --- | --- |
| CNC(=O)Nc1ccc2c(c1)CC[C@@]21OC(=O)N(CC(=O)N(Cc2ccc(F)cc2)[C@@H](C)C(F)(F)F)C1=O [A485] | much more sensitive |  |  |  |  |
| CN(C)c1ccc2c(c1)OC(N)=C(C#N)C2c1cccc(C(F)(F)F)c1 (stereo not drawn) [Chromeceptin] |  | blocks keloid fibroblast proliferation | sensitive | low nanomolar range |  |
| COc1cc(/C=C/C(=O)CC(=O)/C=C/c2ccc(O)c(OC)c2)ccc1O [Curcumin] | much more sensitive |  |  |  |  |
| O=C(O)C(=O)c1cn(Cc2ccccc2)c2ccc(-c3ccc(OC(F)(F)F)cc3)cc12 [Tiplaxtinin] | preferentially blocks keloid fibroblast proliferation over normal HDF proliferation |  | low micromolar range |  | not significantly sensitive |
| COc1ccc(CCN(C)CCCC(C#N)(c2ccc(OC)c(OC)c2)C(C)C)cc1OC (stereo not drawn) [Verapamil] |  | inhibits the proliferation of keloid fibroblasts |  |  |  |
